{"source": "patent US7432341B2", "about": "“Cytokine receptor modulators and method of modulating cytokine receptor activity” (Valo HSJ, Limited Partnership, priority 2002, dated 2008)", "key": {"IL-1R/IL-1RacP [1]": {"target": "T1, IL-1R/IL-1RacP (Homo sapiens, UniProt Q9NPH3)", "T1 construct": "endogenous in cells; host or cells: A549 carcinoma cells", "T1 sequence (Q9NPH3 21-570)": "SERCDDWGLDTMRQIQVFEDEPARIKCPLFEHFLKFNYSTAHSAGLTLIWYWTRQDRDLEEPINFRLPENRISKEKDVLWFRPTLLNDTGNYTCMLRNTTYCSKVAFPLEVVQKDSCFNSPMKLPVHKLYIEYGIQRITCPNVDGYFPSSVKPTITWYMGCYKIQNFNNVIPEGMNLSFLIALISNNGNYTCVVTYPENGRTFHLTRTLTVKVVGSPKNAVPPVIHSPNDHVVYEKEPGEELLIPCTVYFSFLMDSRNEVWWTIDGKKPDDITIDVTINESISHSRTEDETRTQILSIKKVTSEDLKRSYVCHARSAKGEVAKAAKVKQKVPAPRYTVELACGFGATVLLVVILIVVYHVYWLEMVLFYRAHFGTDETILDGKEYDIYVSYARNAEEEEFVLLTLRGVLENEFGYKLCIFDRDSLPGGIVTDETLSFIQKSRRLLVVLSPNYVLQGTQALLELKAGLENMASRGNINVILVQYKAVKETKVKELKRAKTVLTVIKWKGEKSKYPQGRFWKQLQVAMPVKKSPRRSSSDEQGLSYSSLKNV", "test": "IL-1 induced proliferation in A549 carcinoma cells, tritiated thymidine method", "type": "cell-based", "settings": "IL-1 10 ng/ml or 1 ng/ml; peptides 10^−6 to 10^−4 M", "procedure": "FIG. 9 graphically illustrates results of proliferation assays in carcinome A549 cells in presence of IL-1 (10 ng/ml-Panel A) (1 ng/ml-Panel B) and various concentrations of the peptides API-101, API-103 and API-106;\nThe proliferation effect of IL-1 was measured in A549 carcinoma cells in the presence of peptides API101; API103 and API106 and of IL-1 (10 ng/ml-Panel A) and (1 ng/ml-Panel B) pursuant to the incorporated tritiated thymidine method. The cells were preincubated at 37° C. with the different peptides at different concentrations, namely 10^−6, 10^−5 and 10^−4 M. They were then incubated with IL-1 (10 ng/ml or 1 ng/ml) for 24 hours. The cells were then contacted with ^3H-Thymidine for 24 hours, washed and lysed. The radioactivity was then measured with a scintillation counter. The sequences of the peptides antagonists used are as follows: API-101 […], API-103 […]; and API-106 […]. They generally correspond to the subfragment peptides having sequences SEQ ID NO: 50, NO: 52 and NO: 53, respectively except where the subfragment peptide contained an isoleucine. In that case, this isoleucine was replaced by a conservative leucine in the synthesized peptide for economic reasons."}, "IL-1R/IL-1RacP [2]": {"test_system": "IL-1R/IL-1RacP", "test": "Vasomotricity of piglet pial vessels, IL-1β induced vasodilatation", "settings": "IL-1β 75 ng/ml; U46619 10^−7M preconstriction; peptide 10^−10 to 10^−5 M; data not shown; read-out: IC50, prevention of vasodilation induced by IL-1β in piglet pial vessels", "procedure": "In another experiment, vasomotricity variation of piglets pial vessels was studied to further evaluate the particular effect of cytokine receptor subfragments on the vasodilatator effect of IL-1β. Brains were dissected from Yorkshire piglets. Slices of brain exposing the pial vessels were pinned to a wax base of a 20 ml bath containing Krebs buffer (pH 7.4) equilibrated with 95% O2-5% CO2 and maintained at 37° C. Microvessels were visualized and recorded using a video camera mounted on a dissecting microscope. Vascular diameter was measured using a digital image analyzer and the images were recorded before and after topical application of constricting agent U46619 at 10^−7M. After stabilization of the vasomotricity, IL-1β was added until stabilization of vasodilatation. Peptides were then injected at different concentrations from 10^−10 to 10^−5M. Reversal of vasodilatation (i.e. vasoconstriction) was visualized and measured as previously mentioned. IL-1β induced vasodilatation in the microvasculature of the piglet brain was observed. […] The range of concentrations of the peptide administered was from 10^−10 to 10^−5 M."}, "VEGFR (Flk-1)": {"target": "T2, VEGFR (Flk-1) (Rattus norvegicus, UniProt O08775)", "T2 construct": "from tissue; host or cells: rat pup retina (in vivo, intravitreal injection)", "T2 sequence (O08775 20-1343)": "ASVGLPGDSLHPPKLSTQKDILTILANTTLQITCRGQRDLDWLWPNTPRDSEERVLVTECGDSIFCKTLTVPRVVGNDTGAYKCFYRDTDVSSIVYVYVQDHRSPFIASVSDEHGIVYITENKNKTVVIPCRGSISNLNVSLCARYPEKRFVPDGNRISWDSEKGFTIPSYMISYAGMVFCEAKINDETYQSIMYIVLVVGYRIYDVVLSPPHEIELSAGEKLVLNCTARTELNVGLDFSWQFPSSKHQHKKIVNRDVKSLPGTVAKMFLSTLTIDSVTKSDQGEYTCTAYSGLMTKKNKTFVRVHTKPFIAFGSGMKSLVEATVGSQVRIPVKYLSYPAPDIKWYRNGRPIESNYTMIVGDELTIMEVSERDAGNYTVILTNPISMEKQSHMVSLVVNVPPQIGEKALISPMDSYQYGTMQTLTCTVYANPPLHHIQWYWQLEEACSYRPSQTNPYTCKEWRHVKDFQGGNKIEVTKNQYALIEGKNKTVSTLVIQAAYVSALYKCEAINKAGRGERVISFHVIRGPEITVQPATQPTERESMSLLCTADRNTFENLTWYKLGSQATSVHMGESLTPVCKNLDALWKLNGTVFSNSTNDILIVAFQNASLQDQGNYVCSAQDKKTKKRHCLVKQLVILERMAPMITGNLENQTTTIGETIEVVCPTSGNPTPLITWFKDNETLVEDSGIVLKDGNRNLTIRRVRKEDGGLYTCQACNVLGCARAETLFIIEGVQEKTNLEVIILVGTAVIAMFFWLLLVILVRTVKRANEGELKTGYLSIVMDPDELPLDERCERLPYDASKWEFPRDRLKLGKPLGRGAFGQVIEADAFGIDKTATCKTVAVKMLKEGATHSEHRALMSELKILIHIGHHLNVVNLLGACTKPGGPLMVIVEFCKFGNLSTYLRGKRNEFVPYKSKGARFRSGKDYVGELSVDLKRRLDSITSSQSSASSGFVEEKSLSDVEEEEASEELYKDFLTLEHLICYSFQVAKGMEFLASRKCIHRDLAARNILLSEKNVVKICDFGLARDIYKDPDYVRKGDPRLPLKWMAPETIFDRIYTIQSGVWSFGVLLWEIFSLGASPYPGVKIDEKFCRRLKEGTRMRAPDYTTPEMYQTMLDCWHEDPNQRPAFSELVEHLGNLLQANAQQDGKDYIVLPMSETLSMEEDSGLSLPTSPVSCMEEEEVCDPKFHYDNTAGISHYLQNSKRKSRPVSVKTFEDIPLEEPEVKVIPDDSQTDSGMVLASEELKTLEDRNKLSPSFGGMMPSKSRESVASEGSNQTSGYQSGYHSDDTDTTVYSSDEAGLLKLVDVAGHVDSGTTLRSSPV", "test": "Ischemic retinopathy model, neovascularization in rat retinas exposed to hyperoxic conditions", "type": "in vivo", "settings": "rat pups, 80% O2 then normoxia; peptides 10 μM final concentration in the vitreous body", "procedure": "(§1) FIG. 2 graphically illustrates in panel A results of proliferation assay in porcine microvascular endothelial cells in presence of VEGF (2 ng/ml) and peptides 2.1, 2.2, 2.3 (10 μM). In panel B are graphically illustrated dose-response of peptides in pulmonary arterial endothelial cells (PAEC) in presence of VEGF (2 ng/ml) and increasing doses of peptides. In panel C is graphically illustrated the effect of intravitreally injected peptides (10 μM [estimated final intraocular concentration]) of the present invention on neovascularization in rat retinas exposed to hyperoxic conditions;\nThe efficiency of the selected peptides was verified in vivo in a ischemic retinopathy model, a phenomena highly dependant on VEGF activation. Rat pups were exposed to 80% O2 followed by a period of normoxia (21% O2). The peptides were injected at a final concentration of 10 μM in the vitreous body. The retinas were then retrieved, colored with the ADPase method and mounted on slides. Photographs of the retinas were taken with a microscope linked to a computer and the vascular density was evaluated with the Image prosoftware."}, "VEGFR2 (Flk-1)": {"test_system": "VEGFR2 (Flk-1)", "test": "VEGF induced proliferation in microvascular endothelial cells, incorporated tritiated thymidine method", "type": "cell-based, porcine", "settings": "VEGF 2 ng/ml; peptides 10 μM (FIG. 2 panel A)", "procedure": "as §1\nTo determine the efficient and non cytotoxic concentration of VEGF to use in the assay, a dose-response curve of VEGF was generated in two types of cells, namely microvascular endothelial cells and pulmonary artery endothelial cells (PAEC) that had been transfected with the Flk-1 gene. The proliferation was then measured in those two types of cells in the presence of peptides 2.1, 2.2 and 2.3 and of VEGF (2 ng/ml) pursuant to the incorporated tritiated thymidine method. The cells were preincubated at 37° C. with the different peptides at different concentrations. They were incubated with VEGF (2 ng/ml) for 24 hours. The cells were contacted with ^3H-Thymidine for 24 hours, washed and lysed. The radioactivity was measured with a scintillation counter."}}, "note": "Non-standard residues stand in square brackets, D forms with d. Residues, ends and D or L forms follow the SMILES beside them. No end group written: not given here.", "data": [{"compound": "APRYTVELA [API-101]", "values": [{"measurement": "EC50", "setting": "IL-1R/IL-1RacP [1]", "result": 1000, "unit": "nM"}, {"measurement": "IC50", "setting": "IL-1R/IL-1RacP [2]", "result": 182, "unit": "nM"}]}, {"compound": "CC(C)C[C@@H](NC(=O)[C@@H](CCCNC(=N)N)NC(=O)[C@H](NC(=O)[C@@H](CCCNC(=N)N)NC(=O)[C@@H](CCC(=O)O)NC(=O)CNC(=O)[C@H](NC(=O)[C@H](NC(=O)[C@@H](C)NC(=O)[C@H](N)CCC(=O)O)[C@H](C)O)C(C)C)C(C)C)C(=O)O", "note": "[2.2] (H-[dE][dA][dT][dV]G[dE][dR][dV][dR][dL]-OH; N-terminus and C-terminus assumed)", "values": [{"measurement": "induced neovascularization in vivo (vascular density of retina)", "setting": "VEGFR (Flk-1)", "result": "most effective inhibitor of neovascularization"}, {"measurement": "VEGF induced proliferation in microvascular endothelial cells", "setting": "VEGFR2 (Flk-1)", "result": "completely abrogated"}]}, {"compound": "MKLPVHKLY [API-103]", "values": [{"measurement": "EC50", "setting": "IL-1R/IL-1RacP [1]", "result": 1000, "unit": "nM"}]}, {"compound": "CC[C@@H](C)[C@@H](NC(=O)[C@@H](CCC(=O)O)NC(=O)[C@@H](CC(C)C)NC(=O)[C@@H](CC(N)=O)NC(=O)[C@H](NC(=O)[C@@H](CCCCN)NC(=O)[C@@H](CCC(=O)O)NC(=O)[C@@H](CCC(N)=O)NC(=O)[C@@H](C)N)[C@H](C)O)C(=O)N[C@@H](C(=O)N[C@@H](C(=O)N[C@H](CC(C)C)C(=O)N[C@@H](C(=O)NCC(=O)O)C(C)C)[C@H](C)CC)[C@H](C)CC", "note": "[2.1] (H-[dA][dQ][dE][dK][dT][dN][dL][dE][dI][dI][dI][dL][dV]G-OH; N-terminus and C-terminus assumed)", "values": [{"measurement": "VEGF induced proliferation in microvascular endothelial cells", "setting": "VEGFR2 (Flk-1)", "result": "completely abrogated"}]}]}
